Assay results taken from ChEMBL document CHEMBL6127107, “Oleanolic acid derivatives against drug-resistant bacteria and fungi by multi-targets to avoid drug resistance” (Eur J Med Chem, 2024).
Values after ≈ are worked out from the molar mass of the structure shown. Active and inactive are the calls of the source. The calls are words filed in the database; no cut-off is given here.

Legend:
Staphylococcus aureus [1] = assay: Antibacterial activity against methicillin-resistant Staphylococcus aureus infected in cyclophosphamide-injected Kunming mouse model of skin wound infection assessed as wound scabbing at 2 to 4 mg/kg measured after 2 days by photographic analysis; format: functional, organism-based; conditions: dose 2-4 mg/kg, time 2.0 day
Staphylococcus aureus [2] = assay: Antibiofilm activity against methicillin-resistant Staphylococcus aureus assessed as decrease in biofilm density at 1 to 8 times of MIC incubated for 24 hrs by fluorescence microscopic analysis; format: functional, organism-based
Staphylococcus aureus [3] = assay: Antimicrobial activity against methicillin-resistant Staphylococcus aureus in presence of phosphatidylethanolamine; format: functional, organism-based
Staphylococcus aureus [4] = assay: Antibiofilm activity against methicillin-resistant Staphylococcus aureus assessed as decrease in biofilm biomass at 1 to 8 times of MIC by crystal violet staining based analysis; format: functional, organism-based
Staphylococcus aureus [5] = assay: Synergistic antibacterial activity against methicillin-resistant Staphylococcus aureus assessed as fractional inhibitory concentration index in presence of enrofloxacin; format: functional, organism-based
HEK-293T = assay: Cytotoxicity against HEK293T cells at 64 microg/ml by MTT assay; format: toxicity, cell-based; conditions: human, dose 64 µg/ml
Staphylococcus aureus [6] = assay: Antimicrobial activity against methicillin-resistant Staphylococcus aureus in presence of cardiolipin; format: functional, organism-based
Staphylococcus aureus [7] = assay: Antimicrobial activity against Staphylococcus aureus 10; format: functional
Staphylococcus aureus [8] = assay: Antimicrobial activity against methicillin-resistant Staphylococcus aureus in presence of peptidoglycan; format: functional, organism-based
Staphylococcus aureus [9] = assay: Antibacterial activity against methicillin-resistant Staphylococcus aureus infected in cyclophosphamide-injected Kunming mouse model of skin wound infection assessed as reduction in bacterial load in skin at 1 mg/kg measured after 7 days; format: functional; conditions: time 7 day
DNA [10] = assay: Binding affinity to methicillin-resistant Staphylococcus aureus DNA minor groove assessed as decrease in fluorescence by DAPI staining based analysis; format: nucleic-acid assay
Staphylococcus aureus [11] = assay: Synergistic antibacterial activity against methicillin-resistant Staphylococcus aureus assessed as fractional inhibitory concentration index in presence of norfloxacin; format: functional, organism-based
Enterococcus faecalis = assay: Antimicrobial activity against vancomycin resistant Enterococcus faecalis ATCC 51299; format: functional
Cell membrane [12] = assay: Disruption of cell membrane integrity in methicillin-resistant Staphylococcus aureus assessed as increase in PI fluorescence at 2 to 8 times of MIC by PI staining based fluorescence analysis; format: subcellular
Staphylococcus aureus [13] = assay: Synergistic antibacterial activity against methicillin-resistant Staphylococcus aureus assessed as fractional inhibitory concentration index in presence of LCN antibiotic; format: functional, organism-based
Staphylococcus aureus [14] = assay: Antibiofilm activity against methicillin-resistant Staphylococcus aureus assessed as inhibition of biofilm formation at 2 times of MIC by crystal violet staining based analysis relative to control; format: functional
Staphylococcus aureus [15] = assay: Antibacterial activity against methicillin-resistant Staphylococcus aureus in presence of DNA; format: functional, organism-based
Staphylococcus aureus [16] = assay: Bactericidal activity against methicillin-resistant Staphylococcus aureus assessed as eradication of bacterial growth at 4 times of MIC measured within 1 hrs relative to control; format: functional
Staphylococcus aureus [17] = assay: Antimicrobial activity against Staphylococcus aureus 31; format: functional
DNA [18] = assay: Binding affinity to methicillin-resistant Staphylococcus aureus DNA assessed as decrease in fluorescence by PI staining based analysis; format: nucleic-acid assay
Staphylococcus aureus [19] = assay: (§1) Antibacterial activity against methicillin-resistant Staphylococcus aureus infected in cyclophosphamide-injected Kunming mouse model of skin wound infection assessed as reduction in IL-6 level in skin at 1 to 4 mg/kg administered for 7 days and measured on day 8; format: functional, organism-based; conditions: dose 1-4 mg/kg, time 8.0 day
Staphylococcus aureus [20] = assay: Antibacterial activity against methicillin-resistant Staphylococcus aureus infected in cyclophosphamide-injected Kunming mouse model of skin wound infection assessed as wound repair by measuring reduction in wound area at 2 to 4 mg/kg measured for 7 days by photographic analysis; format: functional, organism-based; conditions: dose 2-4 mg/kg, time 7.0 day
[21] = Hemolytic activity against Mianyang red blood cells (unknown origin); format: toxicity, cell-based, RBC
Cell membrane [22] = assay: Disruption of cell membrane integrity in methicillin-resistant Staphylococcus aureus assessed as cell rupture at 2 to 4 times of MIC by scanning electron microscopic analysis; format: subcellular
Staphylococcus aureus [23] = assay: as §1, with “normal morphological appearance of” for “reduction in IL-6 level in”, “8 by H and E staining based analysis” for “8”; format: functional, organism-based; conditions: dose 1-4 mg/kg, time 8.0 day
Staphylococcus aureus [24] = assay: Synergistic antibacterial activity against methicillin-resistant Staphylococcus aureus assessed as fractional inhibitory concentration index in presence of streptomycin; format: functional
DNA [25] = assay: Binding affinity to […] methicillin-resistant Staphylococcus aureus DNA assessed as inhibition of DNA migration by electrophoretic analysis; format: nucleic-acid assay
Staphylococcus aureus [26] = assay: Antibacterial activity against methicillin-resistant Staphylococcus aureus infected in cyclophosphamide-injected Kunming mouse model of skin wound infection assessed as reduction in skin lesions at 1 to 4 mg/kg administered for 7 days and measured on day 8 by H and E staining based analysis; format: functional, organism-based; conditions: dose 1-4 mg/kg, time 8.0 day
DNA [27] = assay: Binding affinity to methicillin-resistant Staphylococcus aureus DNA assessed as inhibition of DNA migration at 75 microg/ml by electrophoretic analysis; format: nucleic-acid assay; conditions: dose 75.0 µg/ml
Staphylococcus aureus [28] = assay: Antibacterial activity against methicillin-resistant Staphylococcus aureus infected in cyclophosphamide-injected Kunming mouse model of skin wound infection assessed as reduction in bacterial load in skin at 4 mg/kg measured after 7 days; format: functional; conditions: time 7 day
Cell membrane [29] = assay: Disruption of cell membrane integrity in methicillin-resistant Staphylococcus aureus assessed as cell deformation at 2 to 4 times of MIC by scanning electron microscopic analysis; format: subcellular
Cell membrane [30] = assay: Disruption of cell membrane integrity in methicillin-resistant Staphylococcus aureus assessed as increase in ROS level at 2 to 8 times of MIC incubated for 1 hrs; format: subcellular
Escherichia coli = assay: Antimicrobial activity against Escherichia coli; format: functional
Staphylococcus aureus [31] = assay: Antibacterial activity against methicillin-resistant Staphylococcus aureus assessed as inhibition of bacterial growth at 1 times of MIC; format: functional, organism-based
Staphylococcus aureus [32] = assay: Antibiofilm activity against methicillin-resistant Staphylococcus aureus assessed as reduction in number of live cells at 8 times of MIC (reference value: 7.79 log10CFU/ml); format: functional
Staphylococcus aureus [33] = assay: Synergistic antibacterial activity against methicillin-resistant Staphylococcus aureus assessed as fractional inhibitory concentration index in presence of cefoxitin; format: functional
Staphylococcus aureus [34] = assay: Synergistic antibacterial activity against methicillin-resistant Staphylococcus aureus assessed as fractional inhibitory concentration index in presence of ceftriaxone; format: functional
DNA [35] = assay: Binding affinity to methicillin-resistant Staphylococcus aureus DNA assessed as change in DNA conformation by UV absorption based analysis; format: nucleic-acid assay
Staphylococcus aureus [36] = assay: Antimicrobial activity against methicillin-resistant Staphylococcus aureus 003; format: functional
Cell membrane [37] = assay: Disruption of cell membrane integrity in methicillin-resistant Staphylococcus aureus assessed as nucleic acid leakage by absorbance based analysis; format: subcellular
Cell membrane [38] = assay: Disruption of cell membrane integrity in Candida albicans; format: subcellular
Mitochondrial membrane = assay: Induction of mitochondrial membrane depolarization in methicillin-resistant Staphylococcus aureus assessed as increase in fluorescence intensity at 1 to 8 times of MIC by DiSC3(5) staining based analysis; format: cell membranes
[39] = Selectivity index, ratio of HC50 for hemolytic activity against Mianyang red blood cells (unknown origin) to MIC for antimicrobial activity against methicillin resistant Staphylococcus aureus 003; format: toxicity, cell-based, RBC; conditions: read-out: Selectivity Index
Staphylococcus aureus [40] = assay: Antimicrobial activity against methicillin-resistant Staphylococcus aureus 011; format: functional
Staphylococcus aureus [41] = assay: Bactericidal activity against methicillin-resistant Staphylococcus aureus; format: functional, organism-based
Staphylococcus aureus [42] = assay: Antimicrobial activity against Staphylococcus aureus 29; format: functional

SMILES: CC(=O)O[C@H]1CC[C@]2(C)[C@H]3CC=C4[C@@H]5CC(C)(C)CC[C@]5(C(=O)NCCCNC(=N)N)CC[C@@]4(C)[C@]3(C)CC[C@H]2C1(C)C
- Activity (Staphylococcus aureus [1]): Active
- Activity (Staphylococcus aureus [2]): Dose-Dependent Effect
- Activity (Staphylococcus aureus [3]): inactive
- Activity (Staphylococcus aureus [4]): Active
- Activity (Staphylococcus aureus [5]): Active
- Activity (HEK-293T): Non-Toxic
- Activity (Staphylococcus aureus [6]): inactive
- MIC (Staphylococcus aureus [7]): 1 µg/mL (≈ 1.68 µM)
- Activity (Staphylococcus aureus [8]): Active
- Activity (Staphylococcus aureus [9]): 0.97 log10CFU/mg
- Activity (DNA [10]): inactive
- Activity (Staphylococcus aureus [11]): Active
- MIC (Enterococcus faecalis): 2 µg/mL (≈ 3.35 µM)
- Activity (Cell membrane [12]): Active
- Activity (Staphylococcus aureus [13]): Active
- inhibition (INH) (Staphylococcus aureus [14]): >80%
- Activity (Staphylococcus aureus [15]): inactive
- Activity (Staphylococcus aureus [16]): 99.99%
- MIC (Staphylococcus aureus [17]): 1 µg/mL (≈ 1.68 µM)
- Activity (DNA [18]): Dose-Dependent Effect
- Activity (Staphylococcus aureus [19]): Active
- Activity (Staphylococcus aureus [20]): Active
- HC50 [21]: 399 µg/mL
- Activity (Cell membrane [22]): Active
- Activity (Staphylococcus aureus [23]): Active
- Activity (Staphylococcus aureus [24]): Active
- Activity (DNA [25]): Active
- Activity (Staphylococcus aureus [26]): Active
- Activity (DNA [27]): Active
- Activity (Staphylococcus aureus [28]): 1.94 log10CFU/mg
- Activity (Cell membrane [29]): Active
- Activity (Cell membrane [30]): Active
- MIC (Escherichia coli): > 64 µg/mL
- Activity (Staphylococcus aureus [31]): Active
- Activity (Staphylococcus aureus [32]): 2.7 log10CFU/ml
- Activity (Staphylococcus aureus [33]): Active
- Activity (Staphylococcus aureus [34]): Active
- Activity (DNA [35]): Active
- MIC (Staphylococcus aureus [36]): 1 µg/mL (≈ 1.68 µM)
- Activity (Cell membrane [37]): Active
- Activity (Cell membrane [38]): Active
- Activity (Mitochondrial membrane): Dose-Dependent Effect
- selectivity ratio [39]: 399
- MIC (Staphylococcus aureus [40]): 2 µg/mL (≈ 3.35 µM)
- Activity (Staphylococcus aureus [41]): Active
- MIC (Staphylococcus aureus [42]): 1 µg/mL (≈ 1.68 µM)
